Experimental data from PMC4405350, “From Broad-Spectrum Biocides to Quorum Sensing Disruptors and Mussel Repellents: Antifouling Profile of Alkyl Triphenylphosphonium Salts” (PLoS ONE, 2015).
pIC50: −log10 of the molar value.

Legend:
Cobetia marina CECT 4278 = test: Marine bacteria growth inhibition (broth microdilution, OD625); format: cell-based; conditions: Cobetia marina, CECT4278; growth inhibition, 24 h, 30 °C, three replicates; read-out: IC50 C. marina
Procedure: (§1) All the biological assays were run by triplicate. […] For the active products, serial dilutions were performed to calculate the half-maximal inhibitory concentrations (IC50) or the minimal inhibitory concentrations (MIC). Unless otherwise stated, the test concentrations were 100, 50, 25, 10, 5, 2.5, 1, 0.5 and 0.1 μM. Dose-response curves were adjusted with GraphPad Prism 5 software using a four-parameter non-linear regression model.
(§2) Growth inhibition was assessed in Marine Broth (Conda) according to CLSI guidelines for broth microdilution susceptibility testing. The incubation time was 24 h and the incubation temperature was 30 °C.

[1] = system: Cellulophaga lytica CECT 5014; test: as above; format: cell-based; conditions: Cellulophaga lytica, CECT5014; growth inhibition, 24 h, 30 °C, three replicates; read-out: IC50 C. lytica
Procedure: as §1, §2

[2] = system: Vibrio anguillarum CECT 4347; test: as above; format: cell-based; conditions: Vibrio anguillarum, CECT4347; growth inhibition, 24 h, 30 °C, three replicates; read-out: IC50 V. anguillarum
Procedure: as §1, §2

[3] = system: Shewanella algae CECT 5021; test: as above; format: cell-based; conditions: Shewanella algae, CECT5021; growth inhibition, 24 h, 30 °C, three replicates; read-out: IC50 S. algae
Procedure: as §1, §2

[4] = system: Vibrio alginolyticus CECT 521; test: as above; format: cell-based; conditions: Vibrio alginolyticus, CECT521; growth inhibition, 24 h, 30 °C, three replicates; read-out: IC50 V. alginolyticus
Procedure: as §1, §2

[5] = system: Pseudoalteromonas atlantica CECT 579; test: as above; format: cell-based; conditions: Pseudoalteromonas atlantica, CECT579; growth inhibition, 24 h, 30 °C, three replicates; read-out: IC50 P. atlantica
Procedure: as §1, §2

[6] = system: violacein production of C. violaceum CVO26; test: Quorum sensing bioassay: violacein production; format: cell-based, Chromobacterium violaceum; conditions: Chromobacterium violaceum, 18 h, read-out: IC50 (Violacein inhibition)
Procedure: The reporter strain C. violaceum CVO26 (CECT 5999) was used to screen the ability of the products to interfere with violacein production, a QS-regulated phenotype. C. violaceum CVO26 is a mini-Tn5 mutant that depends on an exogenous source of autoinducer (AI) (N-hexanoyl homoserine lactone, HHL) for violacein production. C. violaceum CVO26 was cultured in LB broth (Sigma-Aldrich) supplemented with 25 μg ml^-1 kanamycin. Inocula were prepared by dilution (1:100) of an overnight culture of the reporter strain [49]. One hundred microliters of inoculum with HHL (Sigma-Aldrich, 6 μM) or without the AI were added to 96-well plates containing 100 μl of the appropriate dilutions of the test products in LB. Thus, two sets of plates were prepared. One set of plates (without HHL) was used to evaluate the effect of the products on bacterial growth, whereas the other set of plates (with HHL) was used to evaluate their effect on violacein production. Both sets of plates were incubated at 30 °C with agitation (150 rpm) for 18 h.
Growth inhibition was quantified in the first batch of plates by re-suspending bacterial pellets and measuring the OD625. From the second batch of plates violacein was extracted and quantified. Briefly, the plates were dried overnight (60 °C) and violacein was re-solubilized by the addition of 200 μl of DMSO. The plates were shaken for 3 h and then the OD590 was determined.
To evaluate the effect of the alkyl triphenylphosphonium salts on QS-regulated phenotypes, an initial screening at the cut-off concentration of 100 μM was conducted with C. violaceum CVO26. The QS model of C. violaceum is relatively simple and consists of an acyl-homoserine lactone synthase (CviI) that produces the AI molecule N-hexanoyl homoserine lactone (HHL, strain ATCC 31532), or N-3-hydroxydecanoyl homoserine lactone (strain ATCC 12472) which is recognized by the cytoplasmic receptor CviR (Fig 4). The reporter strain CVO26 is a CviI::mini-Tn5 mutant of strain ATCC 31532 and thus recognizes HHL. CviR is a DNA-binding transcription factor that activates the expression of the genes encoding the production of violacein, the characteristic purple alkaloid that gives name to the species.
Indeed, the inhibitions observed in violacein production for long alkyl chains (10–18, 20) were clearly correlated to the biocidal effect exerted by these compounds, with ‘therapeutic ratios’ (IC50 for growth inhibition/IC50 for violacein inhibition) around 1, in general (Table 2). Note that, as the length of the hydrocarbon chain becomes shorter, this ratio increased (8–9). […] To evaluate these compounds in further detail, […] stock solutions were prepared […] to avoid the use of high concentrations of DMSO in the bioassays. […] Serial two-fold dilutions (500–3.9 μM) were assayed. Consequently, the highest amount of DMSO used in the assay was 0.25% (v/v). […] Growth inhibitory effects are only observed at 500 μM, particularly for compound 7 (Fig 6D).

[7] = system: Gayralia oxysperma spores; test: Macroalgal spore germination inhibition; format: cell-based; conditions: 6 days, 19±1 °C
Procedure: as §1
To evaluate the effect of the phosphonium salts on the germination of macroalgal spores, Gayralia oxysperma (Kützing) K.L.Vinogradova was selected as model organism. G. oxysperma (Ulotrichales, Chlorophyta) is a cosmopolitan member of the Ulvophyceae. Unlike Ulva species, which produce biflagellate male and female gametes, as well as quadriflagellate spores, G. oxysperma only produces biflagellate spores. This is an advantage as bioassays can be conducted straightforwardly without the need to distinguish between gamete-producing and zoospore-producing plants. […] Fresh fertile fragments were selected and placed in Petri dishes. Spores were then released in Von Stosch Solution (VSS) by the osmotic method. Bioassays were conducted in flat-bottom 96-well plates as described by Chambers and co-workers, with slight modifications. Each well was filled with 50 μl of the appropriate dilution of the products in VSS to which 50 μl of spore inoculum (ca. 2 x 10^5 spores ml^-1) were added. Plates were incubated at 19±1 °C for 6 days. After the incubation time, the bottom of each well was examined for the presence of germinated spores with an inverted microscope. A spore was considered as germinated when the germ tube was visible. The MIC was recorded as the lowest concentration inhibiting spore germination.

| Compound | pIC50 (Cobetia marina CECT 4278) | pIC50 [1] | pIC50 [2] | pIC50 [3] | pIC50 [4] | pIC50 [5] | pIC50 [6] | MIC G. oxysperma (lowest concentration inhibiting spore germination) [7] [µM] |
| --- | --- | --- | --- | --- | --- | --- | --- | --- |
| O=C(O)CCCCCCCCCC[P+](c1ccccc1)(c1ccccc1)c1ccccc1 [Compound 19] | < 4.00 | < 4.00 | < 4.00 | < 4.00 | < 4.00 | < 4.00 | < 4.00 | >100 |
| c1ccc([P+](CCCCCCCCCCCC[P+](c2ccccc2)(c2ccccc2)c2ccccc2)(c2ccccc2)c2ccccc2)cc1 [Compound 20] | 5.14 | 5.96 | 5.10 | 5.66 | 4.03 | 6.10 | 4.78 | 5 |
